Here are results for ten compounds from ChEMBL document CHEMBL1949531, “Synthesis and antiviral activities of novel gossypol derivatives” (Bioorg Med Chem Lett, 2012).

Data set [1] concerns the target Albumin (Homo sapiens, UniProt P02768). Briefly: Binding affinity to human serum albumin by fluorescence quenching assay. It counts as ADME. As to conditions: isolated protein; call rule not given here.
The test system of data set [2] is Influenza A virus. Description: Antiviral activity against Influenza A virus (A/Vietnam/1194/2004(H5N1)) infected in MDCK cells assessed as inhibition of viral replication by plaque reduction assay. It counts as functional, organism-based. On the technique in general: Plaques are areas of infected cells; plaque reduction assays count them against a control.
The subject of data set [3] is Human immunodeficiency virus 1. Description: Antiviral activity against HIV1 3B infected human TZM-bl cells assessed as inhibition of viral replication by luciferase reporter assay. Type of data set: functional, organism-based.
The nature of data set [4]: Cytotoxicity against MDCK cells by MTT assay. Type of data set: cell-based, Canis lupus familiaris. As to conditions: dog. In general terms: Tetrazolium dyes change colour on reduction, which living cells bring about.
Data set [5] can be described thus: Selectivity index, ratio of CC50 for MDCK cells to IC50 for Influenza A virus (A/Vietnam/1194/2004(H5N1)). Type of data set: functional.
A short description of data set [6]: Cytotoxicity in human TZM-bl cells by MTT assay. It counts as cell-based.
A short description of data set [7]: Selectivity index, ratio of CC50 for human TZM-bl cells to IC50 for HIV1 3B. It counts as functional.
Where [8] appears, read: Human immunodeficiency virus 1, 3B, TZM-bl, read-out: IC50.

The structures appear in SMILES notation.

Albumin, sequence (P02768 whole entry): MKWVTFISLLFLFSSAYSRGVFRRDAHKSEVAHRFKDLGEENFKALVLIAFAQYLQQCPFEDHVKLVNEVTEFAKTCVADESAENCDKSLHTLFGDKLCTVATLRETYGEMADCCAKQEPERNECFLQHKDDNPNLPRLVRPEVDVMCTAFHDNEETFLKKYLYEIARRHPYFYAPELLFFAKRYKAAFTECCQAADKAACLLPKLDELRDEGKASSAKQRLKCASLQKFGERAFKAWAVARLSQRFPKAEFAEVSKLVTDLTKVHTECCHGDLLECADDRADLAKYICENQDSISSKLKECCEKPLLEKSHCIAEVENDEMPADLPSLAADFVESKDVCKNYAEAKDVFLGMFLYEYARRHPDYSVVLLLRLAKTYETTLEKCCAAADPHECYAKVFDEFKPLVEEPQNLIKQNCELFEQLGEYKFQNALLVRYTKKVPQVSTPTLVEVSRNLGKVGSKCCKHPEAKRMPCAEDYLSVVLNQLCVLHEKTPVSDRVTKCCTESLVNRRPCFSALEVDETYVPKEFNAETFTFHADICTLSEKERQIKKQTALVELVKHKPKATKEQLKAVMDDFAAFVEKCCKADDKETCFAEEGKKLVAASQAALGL

For orientation: IC50 means the midpoint of a concentration-inhibition curve. Usually CC50 stands for the concentration that lowers cell viability or growth by half. High values mean lower toxicity to the cells, low ones greater toxicity to the cells. On to `COC(=O)C(N/C=C1\C(=O)C(O)=C(C(C)C)c2cc(C)c(-c3c(C)cc4c(c3O)/C(=C/NC(C(=O)OC)c3ccccc3)C(=O)C(O)=C4C(C)C)c(O)c21)c1ccccc1` (centres undefined), for which, in data set [1], the Ka came out at 4.2658 ×10⁴ L/mol. Moreover, the IC50 in data set [2] is 8.21 µM; in data set [3] (tzm-bl) it was “Not Active”. Further, the CC50 was > 41.1 µM in data set [4] and 31.5 µM in data set [6]. In addition, the “Ratio CC50/IC50” value in data set [5] is >5.
On to `NC12CC3CC(CC(C3)C1)C2` [AMANTADINE], for which, in data set [2], the IC50 was 2.38 µM. The CC50 in data set [4] was > 220 µM. In data set [5], the “Ratio CC50/IC50” value is reported as >92.59.
`Cc1cc2c(c(O)c1-c1c(C)cc3c(c1O)/C(=C/N[C@H](C(=O)[O-])c1ccccc1)C(=O)C(O)=C3C(C)C)/C(=C/N[C@H](C(=O)[O-])c1ccccc1)C(=O)C(O)=C2C(C)C.[Na+].[Na+]` displayed a Ka in data set [1] of 1.4015 ×10⁴ L/mol. In addition, the IC50 in data set [2] amounted to 8.06 µM; in data set [3] (setting [8]), 1.45 µM. Further, the CC50 in data set [4] is > 40.3 µM; in data set [6] it was 29.9 µM. In addition, the “Ratio CC50/IC50” value in data set [7] is 20.64; in data set [5] it was >5.
For the compound `COC(=O)[C@H](CC(C)C)N/C=C1\C(=O)C(O)=C(C(C)C)c2cc(C)c(-c3c(C)cc4c(c3O)/C(=C/N[C@@H](CC(C)C)C(=O)OC)C(=O)C(O)=C4C(C)C)c(O)c21`, the Ka in data set [1] came out at 7.1236 ×10³ L/mol. For the same compound, the IC50 in data set [2] is 8.63 µM; in data set [3] (tzm-bl), “Not Active”. The CC50 was > 42.8 µM in data set [4] and 33.6 µM in data set [6]. Besides, the “Ratio CC50/IC50” value in data set [5] is recorded as >5.
The compound `Cc1cc2c(c(O)c1-c1c(C)cc3c(c1O)/C(=C/N[C@@H](CS)C(=O)[O-])C(=O)C(O)=C3C(C)C)/C(=C/N[C@@H](CS)C(=O)[O-])C(=O)C(O)=C2C(C)C.[Na+].[Na+]` displayed a Ka in data set [1] of 8.2016 ×10³ L/mol. Moreover, the IC50 was 43.4 µM in data set [2] and 3.73 µM in data set [3] (setting [8]). Moreover, the CC50 in data set [4] is > 43.4 µM; in data set [6], 16.5 µM. The entries for the “Ratio CC50/IC50” value in data set [7] and in data set [5] were 4.42 and >1, respectively.
`COC(=O)[C@H](C)N/C=C1\C(=O)C(O)=C(C(C)C)c2cc(C)c(-c3c(C)cc4c(c3O)/C(=C/N[C@@H](C)C(=O)OC)C(=O)C(O)=C4C(C)C)c(O)c21` registered a Ka in data set [1] of 1.0413 ×10⁴ L/mol. In addition, the values for the IC50 in data set [2] and in data set [3] (tzm-bl) were 1.16 µM and “Not Active”, respectively. Moreover, the CC50 was > 48.5 µM in data set [4] and 25.6 µM in data set [6]. Besides, in data set [5], the “Ratio CC50/IC50” value is on record as >41.77.
The compound `COC(=O)[C@H](Cc1c[nH]c2ccccc12)N/C=C1\C(=O)C(O)=C(C(C)C)c2cc(C)c(-c3c(C)cc4c(c3O)/C(=C/N[C@@H](Cc3c[nH]c5ccccc35)C(=O)OC)C(=O)C(O)=C4C(C)C)c(O)c21` displayed a Ka in data set [1] of 2.262 ×10³ L/mol. For the same compound, the IC50 in data set [2] was 7.26 µM; in data set [3] (tzm-bl), “Not Active”. In addition, the cytotoxic concentration (CC50) in data set [4] was > 36.3 µM; in data set [6] it was 22 µM. In addition, the “Ratio CC50/IC50” value in data set [5] was >5.
As to `CCOC(=O)CN/C=C1\C(=O)C(O)=C(C(C)C)c2cc(C)c(-c3c(C)cc4c(c3O)/C(=C/NCC(=O)OCC)C(=O)C(O)=C4C(C)C)c(O)c21`, the Ka in data set [1] turned out to be 1.9028 ×10² L/mol. Moreover, the IC50 in data set [2] is 9.69 µM; in data set [3] (tzm-bl), “Not Active”. Moreover, the CC50 in data set [4] was > 48.5 µM; in data set [6], 25.7 µM. Also, the “Ratio CC50/IC50” value in data set [5] was >5.
As for `CC(=O)N[C@H]1[C@H]([C@H](O)[C@H](O)CO)OC(C(=O)O)=C[C@@H]1NC(=N)N` [ZANAMIVIR], in data set [2], the IC50 is 0.12 µM. Moreover, in data set [4], the CC50 was > 100 µM. In addition, in data set [5], the “Ratio CC50/IC50” value is >836.
`Cc1cc2c(c(O)c1-c1c(C)cc3c(c1O)/C(=C/NCC(=O)[O-])C(=O)C(O)=C3C(C)C)/C(=C/NCC(=O)[O-])C(=O)C(O)=C2C(C)C.[Na+].[Na+]` came in with a Ka in data set [1] of 1.2462 ×10⁴ L/mol. Also, the IC50 in data set [2] amounted to 9.87 µM. Besides, in data set [4], the CC50 was > 49.3 µM. Besides, the “Ratio CC50/IC50” value in data set [5] is >5.
